In US4069337A, “2-Substituted-indole-1-lower-alkanecarboxamides having anti-secretory or anti-ulcer activity” (Sterling Drug Inc., priority 1976, dated 1978):
Read-outs that look alike come from different tables or passages of the source.

Key:
[1] = test system: reserpine-induced stomach ulceration; test: anti-ulcer activity, reserpine-induced ulcer test (method of Selmici et al.); type: in vivo, male, albino, Sprague-Dawley rats; details: Rattus norvegicus, 18 h, oral
Protocol: The anti-ulcer activity of the compounds was determined using the reserpine-induced anti-ulcer test method, described by Selmici et al., which is described briefly as follows: male, albino, Sprague-Dawley rats, weighing approximately 300 g., were divided into medicated and control groups of at least five rats each, and one positive control group of five rats medicated with a known drug at the active dose was run with each experiment. The rats were medicated forty-eight, twenty-four, and one hour before receiving an injection of reserpine. All test drugs were administered orally in terms of base, and the control rats received only the vehicle of medication. The rats were housed individually in wire cages, and food was withdrawn 24 hours prior to injection of reserpine, while water was allowed ad libitum. One hour following the third medication, 5.0 mg. of reserpine per kilogram of body weight in a concentration of 5 mg./ml. was injected intramuscularly in each rat. Eighteen hours after injection the rats were sacrificed, their stomachs removed, opened along the greater curvature, rinsed in warm saline, and pinned to a cork board for gross observation. The stomachs were examined for the number and size of ulcerations located in the glandular portion of the stomach with the aid of a one millimeter grid ocular with a 10x dissecting microscope. The degree of ulceration was arbitrarily graded according to the number and size of the ulcers as follows:
The points were added together and divided by the number of rats in each group to give an ulcer score, and the difference in the mean scores of the medicated and control group was expressed as percent inhibition of ulceration. Alternatively, the results can be expressed as a ratio of the total number of rats with any degree of ulceration (as the numerator) to the total number of rats in the test group (as the denominator).
(§1) Data obtained on administration of the compounds of formula I in rats in the anti-secretory and anti-ulcer tests described above are given in the table below. Unless noted otherwise, data were obtained on oral administration. Results in the anti-secretory activity tests are given in terms of the pH of the gastric fluid in the test animals and the percent inhibition of free acid, while results in the anti-ulcer test are given either in terms of the percent inhibition of ulcers or as a ratio representing the number of animals with ulcers (as the numerator) to the total number of animals in the test group (as the denominator). All doses are expressed in mg./kg.

[2] = test system: reserpine-induced stomach ulceration; test: as above; type: in vivo, male, albino, Sprague-Dawley rats; details: for inhibition in vivo at 50 mg/kg: Rattus norvegicus, sc, 18 h; for Anti-Ulcer: ratio of number of animals with ulcers to total number of animals in the test group: s.c., 50 mg./kg.
[3] = test system: secretion of gastric fluids; test: anti-secretory activity in pylorus-ligated rats (method of Shay et al.); type: in vivo, male albino Wistar rats
Protocol: In standard biological test procedures, described generally by Shay et al., Gastroenterology 5, 43 (1945) and 26, 906 (1954) and by Selmici et al., Acta Physiol. Acad. Sci. Hung. […] Anti-secretory activity was determined in male albino Wistar rats weighing approximately 180 g. using the method described by Shay et al. which is described as follows: the rats were divided into medicated groups of at least five rats each and control groups of ten rats. The rats were medicated orally once daily for 2 days prior to stomach ligation and once again immediately following ligation. All drugs were administered as the free base, and control rats received only the vehicle of medication. The rats were housed individually in wire cages, food was withdrawn 48 hours prior to surgery, and water was withdrawn at the time of surgery. Laparotomy was performed under light ether anesthesia, the pyloric-duodenal junction was ligated, and the wound was closed with metal clips and sprayed with a protective surgical dressing. Five hours following surgery, the rats were sacrificed, the stomach was removed, and the gastric juice collected. The gastric fluid was centrifuged, the total volume, color, and volume of solids were recorded. The pH of the gastric fluid was then determined on a Beckman pH meter, and the "free" and "total" hydrochloric acid content of each gastric sample was determined by titrating an aliquot of the gastric fluid (diluted to approximately 10 ml. with distilled water) by titrating with 0.1N sodium hydroxide against Toepfers reagent and phenolphthalein, respectively. By determining the milliequivalents of hydrochloric acid per milliliter of gastric juice and knowing the total volume of gastric juice secreted by each rat, the total acid output can be calculated. Since pH is a function of "free" acid, the activity of the test compounds can be evaluated by comparison of the mean "free" acid of medicated rats with the mean "free" acid of the controls, and the activity can thus be expressed in terms of percent inhibition of free acid.
as §1

[4] = Rattus norvegicus, po, 5 h, oral, 100 mg./kg., read-out: % Inhibition of Free Acid
[5] = Rattus norvegicus, intraduodenal, 5 h, i.d., 100 mg./kg., read-out: % Inhibition of Free Acid
[6] = Rattus norvegicus, ip, 5 h, i.p., 100 mg./kg., read-out: % Inhibition of Free Acid
[7] = Rattus norvegicus, sc, 5 h, s.c., 100 mg./kg., read-out: % Inhibition of Free Acid

SMILES	inhibition in vivo at 100 mg/kg [1]	inhibition in vivo at 50 mg/kg [2]	inhibition in vivo at 6.25 mg/kg ([3]; Rattus norvegicus, intraduodenal, 5 h, i.d., 6.25 mg./kg., read-out: % Inhibition of Free Acid)	inhibition in vivo at 100 mg/kg [3, 4]	pH of the gastric fluid ([3]; i.d., 6.25 mg./kg.)	pH of the gastric fluid ([3]; oral, 100 mg./kg.)	inhibition in vivo at 1.56 mg/kg ([1]; 1.56 mg./kg.)	inhibition in vivo at 6.25 mg/kg ([1]; 6.25 mg./kg.)	inhibition in vivo at 25 mg/kg [1]	Anti-Ulcer: ratio of number of animals with ulcers to total number of animals in the test group [2]	inhibition in vivo at 100 mg/kg [3, 5]	inhibition in vivo at 100 mg/kg [3, 6]	inhibition in vivo at 100 mg/kg [3, 7]	pH of the gastric fluid ([3]; i.d., 100 mg./kg.)	pH of the gastric fluid ([3]; i.p., 100 mg./kg.)	pH of the gastric fluid ([3]; s.c., 100 mg./kg.)
CNC(=O)Cn1c(C)c(C)c2ccccc21 [Example 1B, 2,3-Dimethyl-1-indole-N-methylacetamide]	91%	93%	46%	45%	1.4	1.8										
Cc1c(C)n(CCC(N)=O)c2ccccc12 [Example 4A, β-(2,3-dimethyl-1-indole)propionamide]		89%		100%		5.3	43%	48%	93%							
Cc1c(CO)c2cc(F)ccc2n1CCC(N)=O [Example 8E, β-(2-Methyl-3-hydroxymethyl-5-fluoro-1-indole)propionamide]				22%		1.1				1/3	89%	100%	100%	3.5	5.9	6.1
Cc1c(C)n(CC(=O)NCCO)c2ccccc12 [Example 3A, 2,3-dimethyl-1-indole-N-(2-hydroxyethyl)acetamide]	84%	69%		22%		1.4										
Cc1c(C)n(C(N)=O)c2ccc(Cl)cc12 [Example 5, 2,3-dimethyl-5-chloro-1-indolecarboxamide]				41%		2.0			0%							
Cc1c(CO)c2ccccc2n1CC(N)=O [Example 8C, 2-Methyl-3-hydroxymethyl-1-indoleacetamide]				62%		1.5				0/5	30%	61%	100%	1.1	2.0	6.9
